Test results reported in US11597920B2, “Compositions and methods for enhancing reverse transcriptase activity and/or reducing the inhibition of reverse transcriptase” (BIO-RAD LABORATORIES, INC., priority 2019, dated 2023).

Columns and labels:
Assay type in all cases: biochemical
[1] = tested on: thermo-stable RT (e.g., MMLV or engineered MMLV); test: RT-qPCR: RT tolerance to other inhibitors (ethanol, guanidine hydrochloride); settings: 7.5% Ethanol and 50 mM Guanidinum hydrochloride
Method: (§1) An RT reaction buffer was formulated so that the RT reaction can be carried out after being mixed together with thermo-stable RT (e.g., MMLV or engineered MMLV) and RNA templates (e.g., Hela RNA). […] The RT reaction was completed in a T100 Thermo Cycler (Bio-Rad Laboratories Inc. Hercules, Calif.). The RT reaction protocol was as follows: 50° C. 20 min, 95° C. 1 min, and incubation at 4° C.
(§2) After RT reaction, the RT products were used for qPCR reaction using SsoAdvanced Universal SYBR Green Supermix (Bio-Rad Laboratories Inc. Hercules, Calif.). The RT product inputs in qPCR reaction ranged from 10% to 0.1% of qPCR reaction, depending on the expression abundance of target genes. Target gene primers (Table 3) at 250 nM were used. The following protocol of qPCR was used on CFC348 Thermo Cycler (Bio-Rad Laboratories Inc. Hercules, Calif.): 95° C. denaturation for 2 min, 40 cycles of 95° C. 5S denaturation, 60° C. 30S annealing/extension/read.

[2] = tested on: thermo-stable RT (e.g., MMLV or engineered MMLV); test: RT-qPCR: RT tolerance to heparin (Cq delay of RT products); settings: for Heparin tolerance: FIG. 2
Method: as §1, §2

[3] = tested on: thermo-stable RT (e.g., MMLV or engineered MMLV); test: RT-qPCR: RT tolerance to formalin; settings: for qPCR results from the RT products compared with the RT products without formalin: Human GAPDH
Method: (§3) An RT reaction buffer was formulated so that the RT reaction can be carried out after being mixed together with thermo-stable RT (e.g., MMLV or engineered MMLV) and RNA templates (e.g., Hela RNA). In a 20 μl RT reaction mix there is 1 u of RT enzyme, 10 u of Rnasin (Rnase inhibitor), nucleotides each at 1.5 mM (e.g., dATP, dCTP, dGTP, dTTP), random hexamer, oligo dT, or gene-specific oligo nucleotides at appropriate concentration (0.5 to 1 uM), 4% glycerol, 0.01% detergent (e.g., Tween 20), with or without RT inhibitors (e.g., Heparin, Ethanol, Guanidine Hydrochloride, Formalin, Tannic acid, etc.) or additives that improve RT reaction efficiency or sensitivity (e.g., PVSA). The RT reaction was completed in a T100 Thermo Cycler (Bio-Rad Laboratories Inc. Hercules, Calif.). The RT reaction protocol was as follows: 50° C. 20 min, 95° C. 1 min, and incubation at 4° C.
as §2, with “annealing/extension/read. After qPCR reaction, Cq values from RT products with and without inhibitors were compared, and usually Cq values were delayed (bigger values) when inhibitors were present. The larger the Cq value relative to no inhibitor RT products, the more inhibition of RT reaction observed.” for “annealing/extension/read.”
(§4) Human GAPDH target gene was detected in the qPCR reaction.

[4] = tested on: thermo-stable RT (e.g., MMLV or engineered MMLV); test: RT-qPCR: RT tolerance to tannic acid
Method: as §3
After RT reaction, the RT products were used for qPCR reaction using SsoAdvanced Universal SYBR Green Supermix (Bio-Rad Laboratories Inc. Hercules, Calif.). The RT product inputs in qPCR reaction ranged from 10% to 0.1% of qPCR reaction, depending on the expression abundance of target genes. Target gene primers (Table 3) at 250 nM were used. […] 30S annealing/extension/read. […]
as §4

With `N.N.O=S(=O)(O)O` [(NH4)2SO4] the “tolerance to other inhibitors” value [1] was “compromises Ethanol and GC tolerance” and the Heparin tolerance [2] was “also improves Heparin tolerance though not as effect as K-Glu”.

For `C=O` [Formalin], the “qPCR results from the RT products compared with the RT products without formalin” value ([3]; Formalin 0.125% in RT reaction) was “significantly delayed” and the Cq delay ([3]; formalin in RT reaction, without His-HCl) was “about 4”.

`N[C@@H](CCC(=O)[O-])C(=O)[O-].[K+].[K+]` [K-Glu, Potassium Glutamate] was tested, and the “tolerance to other inhibitors” value [1] was “without compromising tolerance”, the Heparin tolerance [2] was “improves Heparin tolerance” and the Cq delay ([2]; Heparin 0.003 U/μl with 100 mM K-Glu present) was “less than 1”. The “qPCR from the RT products compared with the RT products without heparin” value ([2]; Heparin 0.0034 u/μl plus 100 mM potassium Glutamate in RT reaction) was “did not show much delay”.

With `O=C(OC[C@H]1O[C@@H](OC(=O)c2cc(O)c(O)c(OC(=O)c3cc(O)c(O)c(O)c3)c2)[C@H](OC(=O)c2cc(O)c(O)c(OC(=O)c3cc(O)c(O)c(O)c3)c2)[C@@H](OC(=O)c2cc(O)c(O)c(OC(=O)c3cc(O)c(O)c(O)c3)c2)[C@@H]1OC(=O)c1cc(O)c(O)c(OC(=O)c2cc(O)c(O)c(O)c2)c1)c1cc(O)c(O)c(OC(=O)c2cc(O)c(O)c(O)c2)c1` [Tannic acid] the Cq delay ([4]; Tannic acid 0.1 μg/μl in the RT reaction, no Poloxamer) was “over 13” and the “qPCR results from the RT products compared with the RT products without tannic acid” value ([4]; tannic acid 0.1 μg/μl, Human GAPDH) was “greatly delayed”.

With `Cl.N[C@@H](Cc1c[nH]cn1)C(=O)O.O` [His-HCl, histidine hydrochloride monohydrate] the “qPCR results from the RT products compared with the RT products without formalin” value ([3]; Formalin 0.125% plus 15 to 20 mM His-HCl) was “did not show a lot delay” and the Cq delay ([3]; formalin with 15 to 20 mM His-HCl present) was “less than 1”.

In the case of `N[C@@H](Cc1c[nH]cn1)C(=O)O` [histidine], the “efficiency of the amplification reaction as compared to a control lacking histidine” value ([3]; reaction mixtures containing formalin) is reported as “improved the efficiency”.

For Heparin, the Cq delay ([2]; Heparin 0.003 U/μl in the RT reaction, no K-Glu) was “over 7” and the “qPCR from the RT products compared with the RT products without heparin” value ([2]; Heparin 0.0034 u/μl in RT reaction, GAPDH and 18S) was “greatly delayed”.
